Measured values as given in patent publication US8648076B2, “Cysteine protease inhibitors and their therapeutic applications” (Hybrigenics SA, priority 2005, dated 2014).
Read-outs that look alike come from different tables or passages of the source.

Assays:
Uch-L3 = biological target: T1, Uch-L3 (Homo sapiens, UniProt P15374); test: UCH-L3 activity assay; format: biochemical; conditions: 400 nM Ub-AMC, 13 pM enzyme, 30 min pre-incubation at 25° C., 60 min at 37° C.; sigmoidal fit; AF: Autofluorescent; read-out: Uch-L3 (inhibition of cysteine protease activity)
T1 sequence (P15374 1-230): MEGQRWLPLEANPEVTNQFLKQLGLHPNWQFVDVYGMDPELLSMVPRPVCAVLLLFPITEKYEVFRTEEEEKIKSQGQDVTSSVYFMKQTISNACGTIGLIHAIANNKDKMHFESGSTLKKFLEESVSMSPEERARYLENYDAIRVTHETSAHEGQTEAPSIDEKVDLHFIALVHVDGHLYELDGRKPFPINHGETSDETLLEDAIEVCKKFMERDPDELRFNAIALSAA
Method: Bovine Serum Albumin 0.05 mg·ml^−1 pH7.6). Compounds stocks (100 mM) were stored at −20° C. in DMSO. […] Reactions were performed as duplicates in Black LJL 96 well plates (HE microplates; Molecular Devices; 20 μl final reaction volume). The substrate concentration for Uch-L3 was 400 nM Ub-AMC (Boston Biochem). The concentration of the enzyme (Uch-L3) in specificity assays was 13 pM. The concentrations were determined in order to perform specificity assays under initial velocities at fixed substrate concentration. Compounds were pre-incubated with enzymes for 30 minutes at 25° C. Reactions were initiated by addition of substrate to the plates containing the enzymes (+/−compounds) diluted in assay buffer. Reactions were incubated for 60 minutes at 37° C. Reactions were stopped by adding acetic acid (100 mM final). Readings were performed on a Pherastar Fluorescent Reader (BMG). δ Emission 380 nm; δ Excitation=460 nm. Data (mean values+/− standard deviation) were analyzed as % of control (no compound) and plotted as percentage versus the Log of the compound concentration using GraphPad (Prism). Data were fitted to a sigmoidal model (variable slope).

USP5 = biological target: T2, USP5 (Homo sapiens, UniProt P45974); test: USP5 activity assay; format: biochemical; conditions: 400 nM Ub-AMC, 300 pM enzyme, 30 min pre-incubation at 25° C., 60 min at 37° C.; sigmoidal fit; AF: Autofluorescent; read-out: USP 5 (inhibition of cysteine protease activity)
T2 sequence (P45974 1-858): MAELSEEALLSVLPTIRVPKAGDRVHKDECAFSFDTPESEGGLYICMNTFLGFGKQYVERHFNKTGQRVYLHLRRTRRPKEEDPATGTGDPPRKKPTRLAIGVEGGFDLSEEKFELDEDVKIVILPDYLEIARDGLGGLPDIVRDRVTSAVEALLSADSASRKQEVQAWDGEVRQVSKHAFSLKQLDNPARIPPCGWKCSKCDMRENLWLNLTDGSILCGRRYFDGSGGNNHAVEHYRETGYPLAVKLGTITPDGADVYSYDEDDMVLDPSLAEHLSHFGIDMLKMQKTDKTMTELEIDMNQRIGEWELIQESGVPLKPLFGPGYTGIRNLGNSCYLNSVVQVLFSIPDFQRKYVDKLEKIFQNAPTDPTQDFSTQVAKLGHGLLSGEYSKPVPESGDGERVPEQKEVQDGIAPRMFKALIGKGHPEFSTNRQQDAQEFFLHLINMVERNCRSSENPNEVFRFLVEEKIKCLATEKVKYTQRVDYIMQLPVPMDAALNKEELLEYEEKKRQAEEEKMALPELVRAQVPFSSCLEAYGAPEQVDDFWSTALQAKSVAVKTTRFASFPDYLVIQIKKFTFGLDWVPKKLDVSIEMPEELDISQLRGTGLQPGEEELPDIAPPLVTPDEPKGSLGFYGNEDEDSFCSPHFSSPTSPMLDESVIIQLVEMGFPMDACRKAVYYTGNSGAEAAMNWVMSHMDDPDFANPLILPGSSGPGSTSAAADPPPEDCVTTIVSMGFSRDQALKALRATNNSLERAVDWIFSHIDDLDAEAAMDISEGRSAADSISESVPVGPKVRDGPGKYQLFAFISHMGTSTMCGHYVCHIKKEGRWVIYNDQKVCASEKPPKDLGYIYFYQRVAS
Method: Bovine Serum Albumin 0.05 mg·ml^−1 pH7.6). Compounds stocks (100 mM) were stored at −20° C. in DMSO. […] Reactions were performed as duplicates in Black LJL 96 well plates (HE microplates; Molecular Devices; 20 μl final reaction volume). The substrate concentration for USP5 was 400 nM Ub-AMC (Boston Biochem). The concentrations of the enzyme (USP5) in specificity assays was 300 pM. The concentrations were determined in order to perform specificity assays under initial velocities at fixed substrate concentration. Compounds were pre-incubated with enzymes for 30 minutes at 25° C. Reactions were initiated by addition of substrate to the plates containing the enzymes (+/− compounds) diluted in assay buffer. Reactions were incubated for 60 minutes at 37° C. Reactions were stopped by adding acetic acid (100 mM final). Readings were performed on a Pherastar Fluorescent Reader (BMG). λ Emission 380 nm; λ Excitation=460 nm. Data (mean values +/− standard deviation) were analyzed as % of control (no compound) and plotted as percentage versus the Log of the compound concentration using GraphPad (Prism). Data were fitted to a sigmoidal model (variable slope).

USP7 = biological target: T3, USP7 (Homo sapiens, UniProt Q93009); test: USP7 activity assay; format: biochemical
T3 construct: His tag (from pFastBac-HT vector) (N); made in house; host or cells: insect cells (Sf9 or High Five), baculovirus

[1] = test system: PC-3 prostate cancer cells; test: PC3 cell viability and proliferation assay (MTS); format: cell-based; conditions: Homo sapiens, PC-3, 72 h, read-out: PC3 D3 GI50
[2] = test system: HCT116 colon cancer cells; test: HCT116 cell viability and proliferation assay (MTS); format: cell-based; conditions: Homo sapiens, read-out: HCT116 D3 GI50
[3] = 400 nM Ub-AMC, 152 pM enzyme, 30 min pre-incubation at 25° C., 60 min at 37° C., sigmoidal fit, read-out: USP 7 (inhibition of cysteine protease activity)
[4] = HCT-116, HCT116 cells, 72 hours incubation, MTS, mean of 3 independent experiments
[5] = PC3 cells, 72 hours incubation, MTS, mean of 3 independent experiments

T3 sequence (Q93009 whole entry): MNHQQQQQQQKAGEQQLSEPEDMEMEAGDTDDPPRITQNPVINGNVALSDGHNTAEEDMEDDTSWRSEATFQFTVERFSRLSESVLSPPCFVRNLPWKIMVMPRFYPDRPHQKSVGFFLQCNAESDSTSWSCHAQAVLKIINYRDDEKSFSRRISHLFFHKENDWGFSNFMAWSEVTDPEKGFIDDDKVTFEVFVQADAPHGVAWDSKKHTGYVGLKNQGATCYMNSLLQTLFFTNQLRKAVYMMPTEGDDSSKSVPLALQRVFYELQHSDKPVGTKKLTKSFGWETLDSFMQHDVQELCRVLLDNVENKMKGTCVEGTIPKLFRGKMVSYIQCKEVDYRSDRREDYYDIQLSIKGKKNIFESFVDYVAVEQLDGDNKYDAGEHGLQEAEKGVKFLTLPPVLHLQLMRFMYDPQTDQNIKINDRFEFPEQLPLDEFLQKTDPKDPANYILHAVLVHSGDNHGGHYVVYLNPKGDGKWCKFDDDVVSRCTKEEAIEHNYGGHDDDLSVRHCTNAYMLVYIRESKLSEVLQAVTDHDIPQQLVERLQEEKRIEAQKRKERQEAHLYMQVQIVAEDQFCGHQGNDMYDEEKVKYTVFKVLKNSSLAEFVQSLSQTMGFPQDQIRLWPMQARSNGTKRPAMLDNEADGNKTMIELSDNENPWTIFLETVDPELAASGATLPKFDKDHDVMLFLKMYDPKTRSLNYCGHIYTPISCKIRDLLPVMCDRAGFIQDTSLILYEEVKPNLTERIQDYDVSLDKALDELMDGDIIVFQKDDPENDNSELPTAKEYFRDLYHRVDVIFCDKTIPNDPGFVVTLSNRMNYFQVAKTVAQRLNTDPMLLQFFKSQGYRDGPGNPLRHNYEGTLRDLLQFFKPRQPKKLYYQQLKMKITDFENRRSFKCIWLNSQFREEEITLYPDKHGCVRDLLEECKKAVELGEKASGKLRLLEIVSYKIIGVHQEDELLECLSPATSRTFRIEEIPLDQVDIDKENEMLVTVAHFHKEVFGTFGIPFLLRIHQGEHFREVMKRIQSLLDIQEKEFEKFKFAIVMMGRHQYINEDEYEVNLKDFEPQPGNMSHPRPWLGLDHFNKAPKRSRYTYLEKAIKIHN

| Compound | IC50 (Uch-L3) | IC50 (USP5) | IC50 (USP7) | GI50 [1] | GI50 ([2]; HCT-116, 72 h) | IC50 (USP7; [3]) | GI50 [2, 4] | GI50 [1, 5] |
| --- | --- | --- | --- | --- | --- | --- | --- | --- |
| CCON=C1c2ccccc2-c2nc(C(N)=O)c(C#N)nc21 [Example 34b, 2-Cyano-9-ethoxyimino-9H-indeno[1,2-b]pyrazine-3-carboxylic acid amide] | 99 nM | 523 nM | 2510 nM | 479 nM | 469 nM |  |  |  |
| CCOC(=O)CO/N=C1\c2ccccc2-c2nc(C(N)=O)c(C#N)nc21 [Example 37, (3-carbamoyl-2-cyano-indeno[1,2-b]pyrazin-9-ylideneaminooxy)-acetic acid ethyl ester] | 393 nM | 799 nM |  |  |  | 2330 nM | 652 nM |  |
| CCSc1nc2c(nc1C#N)C(=O)c1ccccc1-2 [Example 23, 3-ethylsulfanyl-9-oxo-9H-indeno[1,2-b]pyrazine-2-carbonitrile] | 86000 nM | > 100000 nM |  |  |  | > 100000 nM | > 10000 nM | > 10000 nM |
| N#Cc1nc2c(nc1C#N)C1(OCCO1)c1ccccc1-2 [Example 10] | 20000 nM | > 100000 nM |  |  |  |  | 3400 nM | 4400 nM |
| N#Cc1nc2c(nc1C#N)-c1ccccc1C2=NOCc1ccccc1 (mixture of isomers) [Example 13C, 9-Benzyloxyimino-9H-indeno[1,2-b]pyrazine-2,3-dicarbonitrile] | > 100000 nM | > 100000 nM |  |  |  | > 100000 nM | 750 nM | 700 nM |
| Cc1cccc2c1C(=O)c1nc(C#N)c(C#N)nc1-2 [Example 17c, 8-Methyl-9-oxo-9H-indeno[1,2-b]pyrazine-2,3-dicarbonitrile] | 2000 nM | 60000 nM |  |  |  | > 100000 nM | 390 nM | 930 nM |
| N#Cc1nc2c(nc1C#N)-c1ccccc1C2=NOCCOc1ccccc1 [Example 27a, 9-(2-Phenoxy-ethoxyimino)-9H-indeno[1,2-b]pyrazine-2,3-dicarbonitrile] | 10500 nM | > 100000 nM | > 100000 nM | 1000 nM | 549 nM |  |  |  |
| COCCON=C1c2ccccc2-c2nc(C(N)=O)c(C#N)nc21 [Example 34c, 2-Cyano-9-(2-methoxy-ethoxyimino)-9H-indeno[1,2-b]pyrazine-3-carboxylic acid amide] | 109 nM | 606 nM | 2880 nM | 362 nM | 378 nM |  |  |  |
| CCOC(=O)CNC(=O)CO/N=C1\c2ccccc2-c2nc(C(N)=O)c(C#N)nc21 [Example 40, [2-(3-carbamoyl-2-cyano-indeno[1,2-b]pyrazin-9-ylideneaminooxy)-acetylamino]-acetic acid ethyl ester] | 245 nM | 1130 nM |  |  |  | 2800 nM | 4600 nM |  |
| N#Cc1nc2c(nc1C(N)=O)-c1ccccc1/C2=N\OCC(=O)NCC(=O)O [Example 41, [2-(3-carbamoyl-2-cyano-indeno[1,2-b]pyrazin-9-ylideneaminooxy)-acetylamino]-acetic acid] | 328 nM | 1890 nM | 4280 nM |  | > 10000 nM |  |  |  |
| CCO/C(O)=C(\C#N)c1nc2c(nc1C#N)C(=O)c1ccccc1-2 [Example 22, 3-(1-cyano-2-ethoxy-2-hydroxy-vinyl)-9-oxo-9H-indeno[1,2-b]pyrazine-2-carbonitrile] | 22000 nM | > 100000 nM |  |  |  |  | > 10000 nM | > 10000 nM |
| N#Cc1nc2c(nc1C(N)=O)-c1ccccc1/C2=N\OCC(=O)O [Example 38, (3-carbamoyl-2-cyano-indeno[1,2-b]pyrazin-9-ylideneaminooxy)-acetic acid] | 758 nM | 1850 nM | 4030 nM |  | > 10000 nM |  |  |  |
| N#Cc1nc2c(nc1C(N)=O)-c1ccccc1C2=O [Example 36, 2-cyano-9-oxo-9H-indeno[1,2-b]pyrazine-3-carboxylic acid amide] | 178 nM | 208 nM | 1270 nM |  | 4250 nM |  |  |  |
